From patent US9650423B2, “Long peptides of 22-45 amino acid residues that induce and/or enhance antigen specific immune responses” (priority 2000, dated 2017)
pIC50: −log10 of the molar value. Where “and” joins values, the source holds several entries; their conditions need not be identical. Identical values can stand only once. No end group written: not given here.

Legend:
HLA-DR2 (DRB1*0201) = test: HLA-DR-peptide binding assay; design: species or system human; conditions: HPV16-E7 22-mer peptides; >70 indicates undetectable binding; read-out: Binding DR2, IC50
HLA-DR1 (DRB*0101) = biological target: T1, HLA-DR1 (DRB*0101) (Homo sapiens, UniProt P01903+P01911, A100R/D57E/F55L/F60I/F76Y/I96L/L162R/M171V/P40L/Q125E/R42F/V115G/Y59C); test: biochemical; format: binding; conditions: read-out: Binding DR1, IC50
T1 construct: endogenous in cells; host or cells: LG2.1 B-lymphoblastic cell line, homozygous for HLA-DR

HLA-DR7 (DRB1*0701) = HLA-DR7 (DRB1*0701) (Homo sapiens, UniProt P01903+P01911, A100R/A102G/A103Q/D57E/D86V/E43K/F76Y/K127E/L162R/M171V/P40G/Q125H/Q99D/R33Q/R42Y/R54Q/S133A/S66F/T210M/V115G/Y107V/Y59L/Y89S); conditions: read-out: Binding DR7, IC50
[1] = tested on: PBMC or cord blood cells (CBC); format: cell-based, human
HLA-DR4 (DRB*0401) = test: HLA-DR-peptide binding assay; design: species or system human; conditions: HPV16-E7 22-mer peptides; >70 indicates undetectable binding; read-out: Binding DR4, IC50
HLA-DR3 (DRB*0301) = test: HLA-DR-peptide binding assay; design: species or system human; conditions: HPV16-E7 22-mer peptides; >70 indicates undetectable binding; read-out: Binding DR3, IC50
[2] = tested on: E7 49-57-specific CD8+ T cells; test: Vaccination, H-2Db E7 49-57 tetramer staining of spleen cultures; format: in vivo, C57BL/6 mice; conditions: MHC class II−/− mice
[3] = tested on: E7 49-57-specific CD8+ T cells; test: as above; format: in vivo, C57BL/6 mice; conditions: B6 mice
Procedure: (§1) Immunization strategies. C57BL/6 mice were injected subcutaneously with either 50 μg E7^49-57 peptide or 150 μg E7^43-77 35-mer dissolved in PBS in order to achieve similar molar levels of the E7^49-57 CTL epitope in both cases. Combinations with various adjuvantia were tested. In the case of IFA and Montanide, the dissolved peptides were emulsified in 50% of these respective substances. ODN-CpG (50 μg/mouse), MPL (10 μg/mouse) and GM-CSF (4 μg/mouse) were all dissolved in PBS and mixed with the peptides before subcutaneous vaccination. The total injected volume was 200 μl/mouse.
T cell cultures. T cells were obtained from immunized mice by culturing spleen cells (5×10^6 cells/well of a 24-wells plate) in complete medium in the presence of 0.5×10^6 E7^49-57-expressing cells (tumor cell line 13.2) or, when indicated, in the presence of D1 cells.
Tetramer staining. Spleen cultures, stimulated with tumor cell line 13.2 for seven days, were transferred at an amount of 40×10^4 per well to 96-well V-bottom microtiter plates and washed twice with PBS/BSA 0.5%. Subsequently, PE-labelled E749-57-containing tetramer was added. After 30 minutes of incubation at room temperature, cells were washed twice with PBS/BSA 0.5% and incubated with FITC-labelled anti CD8b Ab for 30 minutes. Subsequently cells were washed twice in PBS/BSA 0.5%, suspended in PBS/BSA 0.5% containing Propidium Iodide (PI) (0.5) μg/ml) and transferred to tubes. Cell samples were analysed in a FACSCalibur flow cytometer (Becton Dickinson, San Jose, Calif., USA) using CellQuest software. A total of 20×10^4 events was analysed for fluorescence intensity. Debris was gated out using the PI staining and subsequently the CD8^+ fraction was gated. […] As a positive control the HPV16 E7 specific CTL clone 9.5 was used.

[4] = tested on: E7 43-77-specific IFNγ-producing CD4+ T cells; test: Vaccination, intracellular IFN-γ staining of CD4+ T cells; format: in vivo, C57BL/6 mice; conditions: B6 mice, vaccinated once, IFA
Procedure: as §1
Before use, the D1 cells were incubated for 16 hours with the E7^43-77 35-mer and subsequently activated by adding LPS (10 μg/ml) for 6 hours and then thoroughly washed. Complete medium consists of Iscove's Modified Dulbecco's Medium (IMDM; BioWhittaker, Walkersville, Md., USA) supplemented with 8% FCS, 100 IU/ml penicillin, 2 mM glutamine (ICN, Aurora, Ohio, USA) and 30 μM 2-ME (Merck, Darmstadt, Germany). Cultures were maintained at 37° C. in humidified air containing 5% CO2. No exogenous IL-2 was added. […]
Intracellular cytokine staining. […] Subsequently, the percentage of CD8^+ and CD4^+ IFN-γ producing T cells was measured as described before (van der Burg et al., 2001).

[5] = tested on: HPV16 E7-specific T-helper clones; test: HPV16 E7-specific Th-clones: proliferation and IFNγ production; format: cell-based, human; conditions: Th-clone from HLA-DR15, 4 and DQ6,7 positive PBMC raised against peptide E741-62
Procedure: Peptide-specific T-cell bulk cultures were generated as described previously (van der Burg et al., 1999) using either the E7 22-mer or E7 35-mer peptides. Specific proliferation was measured by incubation of 50,000 responders with an equal amount of irradiated (30Gy) APC (autologous PBMC unless indicated otherwise) and peptide or protein as indicated. E7-peptide and -protein-specific bulk T-cells were cloned by limiting dilution as described previously (van der Burg et al., 1999).
To determine specific excretion of cytokines, T-cell clones were stimulated by incubation of 50.000 T-cells with an equal amount of APC (30Gy) together with 10 μg/ml peptide, control peptide, E7 protein or control protein as indicated. After 24 hours of incubation, supernatant was harvested and replicate wells were pooled. Cytokine production was measured by Enzyme-Linked Immunosorbent Assay (ELISA) as described previously (van der Burg et al., 1999).

Ad5E1-expressing tumors = conditions: Toes et al., 1996a, 1996b; cited from earlier work

**Q.** With STHVDIRTLEDLLMGTLGIVCP [E7 71-92] as the sequence, how does the pIC50 (HLA-DR2 (DRB1*0201)) read?
**A.** 5.70

**Q.** What about the pIC50 (HLA-DR1 (DRB*0101)) of the same sequence?
**A.** 4.92

**Q.** And the pIC50 (HLA-DR7 (DRB1*0701))?
**A.** < 4.15

**Q.** And the “number of antigen-specific cells (IFNγ ELISPOT)” value [1]?
**A.** 2 per 100,000 cord blood cells or PBMC and <1 per 100,000 cord blood cells or PBMC

**Q.** What about the pIC50 (HLA-DR4 (DRB*0401)) of the same sequence?
**A.** < 4.15

**Q.** What about the pIC50 (HLA-DR3 (DRB*0301)) of the same sequence?
**A.** < 4.15

**Q.** Which CTL responses ([2]; one vaccination, ODN-CpG) does the source give for “GQAEPDRAHYNIVTFCCKCDSTLRLCVQSTHVDIR [E7 43-77]” here?
**A.** robust CTL responses

**Q.** What about the “number of E7 49-57-specific CTL” value ([2]; prime-boost, IFA) of the same sequence?
**A.** far lower than found in B6 mice after two vaccinations

**Q.** What about the “E7 49-57-specific CD8+ T cell response” value ([3]; prime-boost, IFA) of the same sequence?
**A.** vigorous

**Q.** And the “mice with E7 49-57-specific CTL response” value ([3]; primed and boosted 50 days later, IFA)?
**A.** 9/11

**Q.** What about the “E7 49-57-specific CD8+ T cells, mean” value ([3]; primed and boosted, IFA) of the same sequence?
**A.** 19%

**Q.** What about the “E7 49-57-specific CD8+ T cells, range” value ([3]; primed and boosted, IFA) of the same sequence?
**A.** 5-40%

**Q.** What about the “E7 49-57-specific CTL response” value ([3]; vaccinated once, GM-CSF and IFA) of the same sequence?
**A.** moderate

**Q.** And the “CD8+ T cells stained with tetramers” value ([3]; vaccinated once, IFA, responders)?
**A.** ~5%

**Q.** What about the “mice responding to the vaccine (tetramer staining)” value ([3]; vaccinated once, IFA, spleens day 10) of the same sequence?
**A.** 3 out of 9

**Q.** What about the “mice with E7 49-57-specific CTL responses” value ([3]; vaccinated once, MPL or ODN-CpG) of the same sequence?
**A.** in all mice

**Q.** What about the “level of the CTL response” value ([3]; vaccinated once, MPL or ODN-CpG, majority of animals) of the same sequence?
**A.** up to 40 % of CD8+ T cells

**Q.** And the “E7 49-57-specific CTL response” value ([3]; vaccinated once, Montanide adjuvant)?
**A.** no responses were observed

**Q.** And the “E7 49-57-specific CTL response” value ([3]; vaccinated once, combined with anti-CD40 antibody or GM-CSF)?
**A.** no or minimal CTL responses

**Q.** And the “E7 43-77-specific IFNγ-producing CD4+ T cells” value [4]?
**A.** ≥ 5%

**Q.** And the “response of HLA-DR15 restricted Th-clone to pulsed APC” value [5]?
**A.** specifically respond

**Q.** Which “effect of peptide vaccination on outgrowth of Ad5E1-expressing tumors” value (Ad5E1-expressing tumors) does the source give for “SGPSNTPPEI (minimal E1A-derived CTL epitope)” here?
**A.** enhances rather than inhibits the growth
